Blank lines part the entries; values can stand above or below the molecule they belong to.
Assays:
TbKKT19 [1] = target: T1, TbKKT19 (Trypanosoma brucei, UniProt Q382T9); assay: ADP Hunter Plus kinase assay, 10-point IC50, with technology counterscreen; repurchased and reconfirmed; type: biochemical
T1 construct: gene Tb11.01.4250; recombinant His-tagged, full-length TbKKT19
T1 sequence (Q382T9 1-484): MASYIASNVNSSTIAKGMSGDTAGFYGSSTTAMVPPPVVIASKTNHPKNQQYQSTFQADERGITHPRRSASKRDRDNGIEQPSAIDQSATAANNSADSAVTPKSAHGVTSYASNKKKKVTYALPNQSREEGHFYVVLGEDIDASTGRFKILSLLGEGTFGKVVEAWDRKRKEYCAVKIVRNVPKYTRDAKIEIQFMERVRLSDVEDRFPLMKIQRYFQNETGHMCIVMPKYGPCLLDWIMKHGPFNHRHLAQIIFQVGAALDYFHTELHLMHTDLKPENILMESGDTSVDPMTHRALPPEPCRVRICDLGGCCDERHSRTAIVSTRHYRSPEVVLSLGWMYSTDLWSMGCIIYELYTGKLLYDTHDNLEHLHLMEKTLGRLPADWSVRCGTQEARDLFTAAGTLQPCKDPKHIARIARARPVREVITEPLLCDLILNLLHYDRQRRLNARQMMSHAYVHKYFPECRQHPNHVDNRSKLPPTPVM

TbKKT19 [2] = target: T1, TbKKT19; assay: ADP Hunter Plus kinase assay, KKL peptide, […] ATP; potency shift at […] ATP; type: biochemical
purified protein = substrate: Nc1ncnc2c1ncn2[C@@H]1O[C@H](COP(=O)(O)OP(=O)(O)OP(=O)(O)O)[C@@H](O)[C@H]1O; assay: purified protein; type: biochemical, Trypanosoma brucei; conditions: ATP binding site

IC50 (TbKKT19 [1]): 18.9 µM
Molecule: CCN(Cc1ccc(/C=C2/C(=O)Nc3ccccc32)o1)S(C)(=O)=O [compound 1]

IC50 (TbKKT19 [1]): 14.9 µM
Molecule: O=C(Nc1ccc2cn[nH]c2c1)c1c(Cl)cccc1Cl [compound 2]

Molecule: COc1cc(O)c2c(c1)[C@H]1O[C@@H]1C[C@H](O)[C@H](O)C(=O)/C=C\C[C@H](C)OC2=O [hypothemycin]
IC50 (TbKKT19 [2]): 0.065 µM

Molecule: CN[C@@H]1C[C@H]2O[C@@](C)([C@@H]1OC)n1c3ccccc3c3c4c(c5c6ccccc6n2c5c31)C(=O)NC4 [staurosporine]
IC50 (TbKKT19 [2]): 0.288 µM

B1: TbKKT19 (Trypanosoma brucei brucei TREU927) (protein)
chain: T1 sequence (Q382T9 1-484)
notes: recombinant His-tagged, full-length TbKKT19
Km (purified protein): 102 µM

— publication PMC6544269, “Identification of inhibitors of an unconventional Trypanosoma brucei kinetochore kinase” (PLoS ONE, 2019)
